{
  "source": "patent US5681846A",
  "about": "(priority 1995, dated 1997)",
  "key": {"[1]": {"assay": "Chemical stability of paclitaxel in infusion solutions by HPLC", "format": "physicochemical", "settings": "0.1 and 1 mg/mL; D5W and 0.9% NaCl", "description": "The liquid chromatograph consisted of a multisolvent delivery pump (Waters Chromatography, Milford, Mass.), a programmable multiple-wavelength ultraviolet light detector (Waters), a WISP autosampler,(Waters) and a HPLC analytical column (Vydac, Hesperia, Calif.) (250×4.6 mm, 5 μm particle size). The system was controlled and integrated by a personal computer (NEC, Boxborough, Mass.). The mobile phase consisted of 53% acetonitrile in water. The flow rate was 1.5 ml/min and detection was performed at 254 nm. […] Sample aliquots were filtered through 5 μm filter needle.\nPrecision expressed as percent relative standard deviation was 0.76%. Calibration curves were constructed from a linear plot of peak area versus concentration (0,025 to 0.15 mg/mL). […] The intra-day and inter-day coefficients of variation were 1.4% and 2.0%, respectively.\nAliquots were removed from each bag initially and after 1, 3, 5, and 7 days and stored in 2-ml sterile vials at -70° C. […] Duplicate HPLC determinations were performed on the aliquots from each test solution."}, "[2]": {"assay": "Turbidimetric assessment of paclitaxel test solutions", "format": "physicochemical", "settings": "during the study", "procedure": "(§1) Aliquots were removed from each bag initially and after 1, 3, 5, and 7 days and stored in 2-ml sterile vials at -70° C. Grossly precipitated solutions were assayed after 31 days of storage. Duplicate HPLC determinations were performed on the aliquots from each test solution.\n(§2) Physical compatibility was evaluated by visual examination and turbidimetric quantification. […] The tubes and caps were triple-washed in high-performance liquid chromatography-grade water and rinsed exteriorly with ethanol. To minimize the effects of scratches and imperfections in the glass, a thin layer of silicone oil was applied to the exterior of the culture tubes.\nTurbidimetric assessments of the normally hazy paclitaxel solutions were made using a color-correcting turbidimeter (Hatch, Loveland, Colo.). The turbidimeter was calibrated in the manner described previously (Trissel et al., 1992). Triplicate determinations were made for each sample; the turbidimeter was allowed to return to zero between determinations. Incompatibility has been defined as an increase in turbidity of 0.5 nephelometric turbidity unit (NTU) or more (Trissel et al., 1993).\n(§3) Visual inspections and turbidimetric assessments were performed initially and after 1, 3, 5, 7, 14, and 31 days of storage at each temperature protected from light."}, "[3]": {"format": "physicochemical", "settings": "for Precipitation Time (earliest among triplicate samples): Cremophor EL 8.3%", "from_the_text": "Physical stability testing of extended stability formulations has been evaluated for the effects of changing alcohol concentration on precipitation times in infusion solutions.\nIn the 15 to 20% range, the time to precipitation varied from about 9 to 14 days in most samples. […] Within the 15 to 20% group, however, the time to precipitation was variable and not linearly related to alcohol content.\n^a Cremophor ® EL concentration held constant at 8.3%, the same a\n^b Earliest precipitation among triplicate samples."}, "cell replication": {"tested_on": "cell replication", "settings": "in vitro; cited from earlier work"}, "tubulin": {"tested_on": "tubulin", "settings": "cited from earlier work"}, "[4]": {"assay": "Visual examination of paclitaxel test solutions (physical compatibility)", "format": "physicochemical", "set-up": "key to Visual observation: --: Light blue hazy solution free of particulate matter", "settings": "for Visual observation, all samples: days 1 and 3", "procedure": "as §1, §2\nVisual examination of the samples was performed with the unaided eye in normal laboratory fluorescent light. Samples with no obvious visual incompatibility were further examined using a Tyndall beam (high-intensitymonodirectional light source)(Dolan-Jenner, Woburn, Mass.). The test tubes were illuminated from below and viewed at a 90° angle against a dark background to enhance the visibility of small particles.\nas §3"}, "[5]": {"settings": "cited from earlier work"}, "lymphoma, breast cancer": {"tested_on": "lymphoma, breast cancer", "settings": "cited from earlier work"}},
  "note": "“Also recorded” adds a separate entry of the source. Where two headings read alike, the source gives them in different places.",
  "data": [
    {"smiles": "CC(=O)O[C@H]1C(=O)[C@@]2(C)[C@H]([C@H](OC(=O)c3ccccc3)[C@]3(O)C[C@H](OC(=O)[C@H](O)[C@@H](NC(=O)c4ccccc4)c4ccccc4)C(C)=C1C3(C)C)[C@]1(OC(C)=O)CO[C@@H]1C[C@@H]2O", "note": "[paclitaxel]", "values": [
      {"measurement": "decomposition products on HPLC chromatograms", "setting": "[1]", "value": "No decomposition products appeared on the HPLC chromatograms"},
      {"measurement": "change in turbidity", "setting": "[2]", "value": "did not result in any change during the study except for samples with noticeable precipitation"},
      {"measurement": "Precipitation Time (earliest among triplicate samples)", "setting": "[3]; 1 mg/mL in D5W, alcohol 15%", "value": 14, "unit": "days"},
      {"measurement": "Precipitation Time (earliest among triplicate samples)", "setting": "[3]; 1 mg/mL in D5W, alcohol 16%", "value": 12, "unit": "days"},
      {"measurement": "Precipitation Time (earliest among triplicate samples)", "setting": "[3]; 1 mg/mL in D5W, alcohol 17%", "value": 10, "unit": "days"},
      {"measurement": "Precipitation Time (earliest among triplicate samples)", "setting": "[3]; 1 mg/mL in D5W, alcohol 18%", "value": 12, "unit": "days"},
      {"measurement": "Precipitation Time (earliest among triplicate samples)", "setting": "[3]; 1 mg/mL in D5W, alcohol 19%", "value": 9, "unit": "days"},
      {"measurement": "Precipitation Time (earliest among triplicate samples)", "setting": "[3]; 1 mg/mL in D5W, alcohol 20%", "value": 9, "unit": "days"},
      {"measurement": "gross precipitation", "setting": "[3]; 1 mg/mL in D5W, alcohol 25%", "value": 21, "unit": "days"},
      {"measurement": "Precipitation Time (earliest among triplicate samples)", "setting": "[3]; 1 mg/mL in D5W, alcohol 25%", "value": 14, "unit": "days"},
      {"measurement": "earliest microprecipitation", "setting": "[3]; 1 mg/mL in D5W, alcohol 25%, one sample", "value": 14, "unit": "days"},
      {"measurement": "Precipitation Time (earliest among triplicate samples)", "setting": "[3]; 1 mg/mL in D5W, alcohol 30%", "value": "> 60", "unit": "days"},
      {"measurement": "storage time without precipitation or microcrystals", "setting": "[3]; 1 mg/mL in D5W, alcohol 30 and 50%, any sample", "value": "> 60", "unit": "days"},
      {"measurement": "Precipitation Time (earliest among triplicate samples)", "setting": "[3]; 1 mg/mL in D5W, alcohol 50%", "value": "> 60", "unit": "days"},
      {"measurement": "precipitation among triplicate samples", "setting": "[3]; alcohol 19% and 20% (footnote c)", "value": "One sample precipitated at 9 days, 2 samples at 14 days or more."},
      {"measurement": "precipitation among triplicate samples", "setting": "[3]; alcohol 25% (footnote d)", "value": "One sample did not precipitated after 60 days."},
      {"measurement": "precipitation among triplicate samples", "setting": "[3]; alcohol 30% and 50% (footnote e)", "value": "All three samples were still in solution after 60 days."},
      {"measurement": "inhibition of cell replication", "setting": "cell replication", "value": "potent inhibitor of cell replication in vitro"},
      {"measurement": "tubulin polymerization", "setting": "tubulin", "value": "markedly enhances all aspects of tubulin polymerization; initiation and elongation are more rapid"},
      {"measurement": "precipitation observed visually / by Tyndall beam", "setting": "[4]; 0.1 and 1 mg/mL, D5W and 0.9% NaCl", "value": "all samples were initially free of particulate matter but had paclitaxel's normal haze; also recorded: Large amounts of white flocculent precipitate appeared after 31 days of storage in many of the samples and after 14 days in a few samples; also recorded: Two samples had small amounts of crystalline precipitate within five days of storage; also recorded: Most samples had crystalline precipitation within a week"},
      {"measurement": "chemical stability and physical compatibility time", "setting": "[4]; 0.1 and 1 mg/mL, D5W and 0.9% NaCl, 4, 22, 32 °C", "value": "All samples remained compatible in both infusion solutions for at least three days; also recorded: chemically stable and physically compatible for three days"},
      {"measurement": "Visual observation", "setting": "[4]; 0.9% NaCl, 0.1 mg/mL, 4 °C, day 0", "value": "--"},
      {"measurement": "Visual observation", "setting": "[4]; 0.9% NaCl, 0.1 mg/mL, 4 °C, day 7", "value": "Tiny crystals"},
      {"measurement": "Visual observation", "setting": "[4]; 0.9% NaCl, 0.1 mg/mL, 22 °C, day 0", "value": "--"},
      {"measurement": "Visual observation", "setting": "[4]; 0.9% NaCl, 0.1 mg/mL, 22 °C, day 5", "value": "--"},
      {"measurement": "Visual observation", "setting": "[4]; 0.9% NaCl, 0.1 mg/mL, 22 °C, day 7", "value": "Tiny crystals"},
      {"measurement": "Visual observation", "setting": "[4]; 0.9% NaCl, 0.1 mg/mL, 32 °C, day 0", "value": "--"},
      {"measurement": "Visual observation", "setting": "[4]; 0.9% NaCl, 0.1 mg/mL, 32 °C, day 5", "value": "--"},
      {"measurement": "Visual observation", "setting": "[4]; 0.9% NaCl, 0.1 mg/mL, 32 °C, day 7", "value": "Tiny crystals"},
      {"measurement": "Visual observation", "setting": "[4]; 0.9% NaCl, 1 mg/mL, 4 °C, day 0", "value": "--"},
      {"measurement": "Visual observation", "setting": "[4]; 0.9% NaCl, 1 mg/mL, 4 °C, day 5", "value": "--"},
      {"measurement": "Visual observation", "setting": "[4]; 0.9% NaCl, 1 mg/mL, 4 °C, day 7", "value": "Tiny crystals"},
      {"measurement": "Visual observation", "setting": "[4]; 0.9% NaCl, 1 mg/mL, 22 °C, day 0", "value": "--"},
      {"measurement": "Visual observation", "setting": "[4]; 0.9% NaCl, 1 mg/mL, 22 °C, day 5", "value": "--"},
      {"measurement": "Visual observation", "setting": "[4]; 0.9% NaCl, 1 mg/mL, 22 °C, day 7", "value": "Tiny crystals"},
      {"measurement": "Visual observation", "setting": "[4]; 0.9% NaCl, 1 mg/mL, 32 °C, day 0", "value": "--"},
      {"measurement": "Visual observation", "setting": "[4]; 0.9% NaCl, 1 mg/mL, 32 °C, day 5", "value": "--"},
      {"measurement": "Visual observation", "setting": "[4]; 0.9% NaCl, 1 mg/mL, 32 °C, day 7", "value": "Tiny crystals"},
      {"measurement": "Visual observation", "setting": "[4]; 0.9% NaCl, 1 mg/mL, 32 °C, day 14", "value": "Tiny crystals"},
      {"measurement": "Visual observation, all samples", "setting": "[4]; 0.9% NaCl", "value": "particulatefree"},
      {"measurement": "Visual observation", "setting": "[4]; 5% dextrose, 0.1 mg/mL, 4 °C, day 0", "value": "--"},
      {"measurement": "Visual observation", "setting": "[4]; 5% dextrose, 0.1 mg/mL, 4 °C, day 5", "value": "--"},
      {"measurement": "Visual observation", "setting": "[4]; 5% dextrose, 0.1 mg/mL, 4 °C, day 7", "value": "--"},
      {"measurement": "Visual observation", "setting": "[4]; 5% dextrose, 0.1 mg/mL, 4 °C, day 14", "value": "--"},
      {"measurement": "Visual observation", "setting": "[4]; 5% dextrose, 0.1 mg/mL, 22 °C, day 0", "value": "--"},
      {"measurement": "Visual observation", "setting": "[4]; 5% dextrose, 0.1 mg/mL, 22 °C, day 5", "value": "--"},
      {"measurement": "Visual observation", "setting": "[4]; 5% dextrose, 0.1 mg/mL, 32 °C, day 0", "value": "--"},
      {"measurement": "Visual observation", "setting": "[4]; 5% dextrose, 0.1 mg/mL, 32 °C, day 5", "value": "--"},
      {"measurement": "Visual observation", "setting": "[4]; 5% dextrose, 1 mg/mL, 4 °C, day 0", "value": "--"},
      {"measurement": "Visual observation", "setting": "[4]; 5% dextrose, 1 mg/mL, 22 °C, day 0", "value": "--"},
      {"measurement": "Visual observation", "setting": "[4]; 5% dextrose, 1 mg/mL, 22 °C, day 5", "value": "--"},
      {"measurement": "Visual observation", "setting": "[4]; 5% dextrose, 1 mg/mL, 32 °C, day 0", "value": "--"},
      {"measurement": "Visual observation", "setting": "[4]; 5% dextrose, 1 mg/mL, 32 °C, day 5", "value": "--"},
      {"measurement": "Visual observation, all samples", "setting": "[4]; 5% dextrose", "value": "particulatefree"},
      {"measurement": "appearance after dilution in infusion fluids", "setting": "[5]; clinical formulation diluted in intravenous infusion fluids", "value": "slight haze and, occasionally, a few minute particles"},
      {"measurement": "physical stability in aqueous solutions", "setting": "[5]; clinical formulation", "value": "physically unstable, and in aqueous solutions exhibits the formation of paclitaxel precipitate"},
      {"measurement": "activity in clinical trials", "setting": "lymphoma, breast cancer", "value": "has shown activity against lymphoma, breast cancer, and possibly other tumors"}
    ]}
  ]
}
